Assay results reported in US20220151896A1, “EFFICIENT SUNSCREEN COMPOSITIONS WITH DIETHYLAMINO HYDROXYBENZOYL HEXYL BENZOATE AND ORGANIC PARTICULATE UV FILTER” (BASF SE, priority 2019, published 2022).

What was measured:
[1] = general description of the commercial UV filter; cited from earlier work
[2] = Interfacial tension (polarity index) of emollients, Tensimat Densimat TD2000; assay type: physicochemical; details: interfacial tension oil/water
Description: The term “polarity index” refers to non-polar or polar oils. Non-polar oils are mainly based on hydrocarbons and lack an electronegative element, such as oxygen. In contrast, polar oils contain heteroatoms that differ in electronegativity, which results in a dipole moment. However, such oils are still insoluble in water, i.e. hydrophob. The polarity index can be determined by measuring the interfacial tension between the respective oil and water.
Interfacial tension of the respective emollients as listed below was measured using a Tensimat Densimat TD2000.

Row | SMILES | absorption maximum [1] | polarity index [2]
1 | CCCCC(CC)COC(=O)c1ccc(Nc2nc(Nc3ccc(C(=O)NC(C)(C)C)cc3)nc(Nc3ccc(C(=O)OCC(CC)CCCC)cc3)n2)cc1 (centres unmarked) [diethylhexyl-butamidotriazone, 4,4′-[[6-[[4-[[(1,1-dimethylethyl)amino]carbonyl]phenyl]amino]-1,3,5-triazin-2,4-diyl]diimino]bis-benzoic acid-bis(2-ethylhexyl)ester] | 310 nm | –
2 | O1[SiH2]O[SiH2]O[SiH2]O[SiH2]O[SiH2]1 (centres unmarked) [cyclopentasiloxane] | – | 32 mN/m
